Results published in patent US11008314B2, “Compounds and methods for modulating interleukin-2-inducible t-cell kinase” (CORVUS PHARMACEUTICALS, INC., priority 2016, dated 2021).

How the values were obtained:
Assay type in all cases: biochemical
ITK = ITK (Homo sapiens (Human), UniProt Q08881); test: IC50 against ITK
BTK = BTK (Homo sapiens (Human), UniProt Q06187); test: IC50 against BTK
JAK3 = JAK3 (Homo sapiens (Human), UniProt P52333); test: IC50 against JAK3
TXK = TXK (Homo sapiens (Human), UniProt P42681); test: IC50 against TXK; conditions: for TXK/ITK: ratio of TXK IC50 to ITK IC50
Sequence of TXK (P42681 whole entry, species assumed): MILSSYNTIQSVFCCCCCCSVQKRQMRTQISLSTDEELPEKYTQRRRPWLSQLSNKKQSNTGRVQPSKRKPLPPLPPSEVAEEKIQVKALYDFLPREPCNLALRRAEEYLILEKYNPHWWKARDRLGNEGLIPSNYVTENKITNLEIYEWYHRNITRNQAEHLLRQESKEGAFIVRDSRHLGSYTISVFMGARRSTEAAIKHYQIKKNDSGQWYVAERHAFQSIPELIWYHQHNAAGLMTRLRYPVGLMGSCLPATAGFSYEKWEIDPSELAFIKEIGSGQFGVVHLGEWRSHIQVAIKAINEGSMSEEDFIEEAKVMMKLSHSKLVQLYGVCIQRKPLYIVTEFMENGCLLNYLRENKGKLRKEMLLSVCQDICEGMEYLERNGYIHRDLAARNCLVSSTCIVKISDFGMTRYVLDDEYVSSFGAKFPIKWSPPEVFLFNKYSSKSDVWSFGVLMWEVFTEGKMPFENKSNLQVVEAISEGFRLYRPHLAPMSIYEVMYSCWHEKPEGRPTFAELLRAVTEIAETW

Sequence of ITK (Q08881 whole entry): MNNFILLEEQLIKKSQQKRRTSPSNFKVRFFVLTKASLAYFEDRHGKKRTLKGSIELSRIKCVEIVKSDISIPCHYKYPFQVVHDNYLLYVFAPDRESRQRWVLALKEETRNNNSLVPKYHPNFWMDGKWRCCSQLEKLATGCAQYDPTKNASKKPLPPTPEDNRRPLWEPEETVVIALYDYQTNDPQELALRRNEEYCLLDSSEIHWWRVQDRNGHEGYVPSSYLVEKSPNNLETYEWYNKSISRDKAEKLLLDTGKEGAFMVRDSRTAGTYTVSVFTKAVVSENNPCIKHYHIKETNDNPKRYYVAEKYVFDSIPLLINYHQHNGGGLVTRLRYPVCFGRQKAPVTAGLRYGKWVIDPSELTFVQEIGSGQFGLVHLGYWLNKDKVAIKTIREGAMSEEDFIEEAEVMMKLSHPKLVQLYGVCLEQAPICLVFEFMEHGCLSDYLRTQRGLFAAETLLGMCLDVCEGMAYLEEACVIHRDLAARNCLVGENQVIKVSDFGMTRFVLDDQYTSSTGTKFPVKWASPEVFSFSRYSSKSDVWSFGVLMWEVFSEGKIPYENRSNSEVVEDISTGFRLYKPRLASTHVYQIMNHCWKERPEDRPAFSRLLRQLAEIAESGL
Sequence of BTK (Q06187 whole entry, species assumed): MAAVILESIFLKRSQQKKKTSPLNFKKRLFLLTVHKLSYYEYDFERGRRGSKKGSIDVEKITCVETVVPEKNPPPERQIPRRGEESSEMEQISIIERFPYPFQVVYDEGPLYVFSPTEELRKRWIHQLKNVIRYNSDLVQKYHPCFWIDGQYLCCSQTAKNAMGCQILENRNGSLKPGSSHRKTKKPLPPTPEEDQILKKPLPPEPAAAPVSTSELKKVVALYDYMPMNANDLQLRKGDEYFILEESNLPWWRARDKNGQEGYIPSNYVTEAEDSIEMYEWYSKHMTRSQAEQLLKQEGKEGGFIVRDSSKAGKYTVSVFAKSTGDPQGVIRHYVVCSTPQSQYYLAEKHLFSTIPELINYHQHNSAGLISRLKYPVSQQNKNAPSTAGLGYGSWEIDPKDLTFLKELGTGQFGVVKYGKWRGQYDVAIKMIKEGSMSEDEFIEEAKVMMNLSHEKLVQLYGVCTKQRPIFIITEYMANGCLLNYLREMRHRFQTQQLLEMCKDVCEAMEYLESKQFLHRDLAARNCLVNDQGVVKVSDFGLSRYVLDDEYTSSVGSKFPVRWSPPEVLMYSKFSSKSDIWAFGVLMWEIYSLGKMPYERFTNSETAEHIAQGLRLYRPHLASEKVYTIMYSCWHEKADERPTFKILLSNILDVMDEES
Sequence of JAK3 (P52333 whole entry, species assumed): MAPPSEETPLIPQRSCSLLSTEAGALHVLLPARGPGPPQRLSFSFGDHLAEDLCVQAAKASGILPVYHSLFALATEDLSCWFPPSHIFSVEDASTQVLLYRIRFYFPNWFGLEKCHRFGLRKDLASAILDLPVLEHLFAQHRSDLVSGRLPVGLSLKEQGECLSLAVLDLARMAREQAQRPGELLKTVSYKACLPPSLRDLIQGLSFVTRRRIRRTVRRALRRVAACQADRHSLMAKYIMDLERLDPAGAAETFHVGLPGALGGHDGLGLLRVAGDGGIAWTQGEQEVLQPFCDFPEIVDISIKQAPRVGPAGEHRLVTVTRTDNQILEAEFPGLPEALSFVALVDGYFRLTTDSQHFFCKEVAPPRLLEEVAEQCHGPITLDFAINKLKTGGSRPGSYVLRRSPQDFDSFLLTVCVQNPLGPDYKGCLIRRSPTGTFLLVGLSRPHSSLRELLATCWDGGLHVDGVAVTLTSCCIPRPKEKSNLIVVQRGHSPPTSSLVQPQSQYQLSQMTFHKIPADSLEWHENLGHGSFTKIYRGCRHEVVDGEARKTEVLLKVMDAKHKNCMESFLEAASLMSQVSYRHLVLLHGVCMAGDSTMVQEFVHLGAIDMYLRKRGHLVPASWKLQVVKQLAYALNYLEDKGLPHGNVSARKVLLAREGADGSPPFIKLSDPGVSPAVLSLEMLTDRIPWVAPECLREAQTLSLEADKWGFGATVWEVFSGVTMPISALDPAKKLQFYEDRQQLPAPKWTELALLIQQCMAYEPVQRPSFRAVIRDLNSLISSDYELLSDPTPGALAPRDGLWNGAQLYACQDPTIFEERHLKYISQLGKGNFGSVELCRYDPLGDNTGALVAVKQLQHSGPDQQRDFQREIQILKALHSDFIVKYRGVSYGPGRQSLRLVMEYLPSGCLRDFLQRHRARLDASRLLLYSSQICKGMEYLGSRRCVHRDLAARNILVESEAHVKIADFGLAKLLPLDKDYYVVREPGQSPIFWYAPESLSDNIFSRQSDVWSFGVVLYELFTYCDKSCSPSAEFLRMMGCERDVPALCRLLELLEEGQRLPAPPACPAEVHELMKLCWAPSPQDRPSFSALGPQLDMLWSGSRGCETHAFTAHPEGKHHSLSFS

| Structure (SMILES) | IC50 (ITK) [nM] | IC50 (BTK) [nM] | IC50 (JAK3) [nM] | IC50 (TXK) [nM] | TXK/ITK (TXK) |
| --- | --- | --- | --- | --- | --- |
| C=CC(=O)N1CCN(C(=O)c2cc(Sc3cnc(NC(=O)c4cccc(CN(C)C)c4)s3)c(C)cc2C)C[C@H]1C#N [Compound 125] | < 10 | 10 to 100 | < 10 | < 10 | 2.3 |
| C=CC(=O)N1CCN(C(=O)c2cc(Sc3cnc(Nc4ccccn4)s3)c(Cl)cc2C)CC1 [Compound 126] | < 10 | 10 to 100 | 10 to 100 | 10 to 100 | 13.5 |
| C=CC(=O)N1CCCN(C(=O)c2cc(Cc3cnc(NC(=O)C4CC4)s3)c(C)cc2C)C[C@H]1C [Compound 127] | 10 to 100 | 100 to 1000 | ≥ 10000 | 100 to 1000 | 7.6 |
| C=CC(=O)N1CCCN(C(=O)c2cc(Cc3cnc(NC(=O)C4CC4)s3)c(C)cc2OC)C[C@H]1C [Compound 128] | 10 to 100 | 100 to 1000 | ≥ 10000 | 100 to 1000 | 12.8 |
| C=CC(=O)N1CCN(C(=O)c2cc(Sc3cnc(NC(=O)c4cccc(CN(C)C)c4)s3)c(C)cc2C)C[C@H]1CC [Compound 129] | < 10 | 10 to 100 | 100 to 1000 | 10 to 100 | 46.0 |
| C=CC(=O)N1CCN(C(=O)c2cc(Sc3cnc(NC(=O)c4ccsc4)s3)c(C)cc2C)C[C@H]1CC [Compound 130] | < 10 | 100 to 1000 | 100 to 1000 | 10 to 100 | 7.0 |
| C=CC(=O)N1CCN(C(=O)c2cc(Sc3cnc(NC(=O)c4cnsc4)s3)c(C)cc2C)C[C@H]1CC [Compound 131] | < 10 | 100 to 1000 | 100 to 1000 | 10 to 100 | 11.0 |
| C=CC(=O)N1CCN(C(=O)c2cc(Sc3cnc(NC(=O)c4ccn(C)c4)s3)c(C)cc2OC)C[C@H]1CC [Compound 132] | < 10 | 100 to 1000 | 100 to 1000 | 10 to 100 |  |
| C=CC(=O)N1CCN(C(=O)c2cc(Sc3cnc(Nc4ccccn4)s3)c(C)cc2C)CC1 [Compound 133] | < 10 | 10 to 100 | 10 to 100 | < 10 | 4.6 |
| C=CC(=O)N1CCN(C(=O)c2cc(Sc3cnc(Nc4ccc(CN(C)C)cn4)s3)c(C)cc2OC)CC1 [Compound 134] | < 10 | < 10 | 10 to 100 | < 10 |  |
| C=CC(=O)N1CCCN(C(=O)c2cc(Sc3cnc(Nc4ncccc4C)s3)c(C)cc2OC)C[C@H]1C [Compound 136] | < 10 | 10 to 100 | 100 to 1000 | 10 to 100 | 42 |
| C=CC(=O)N1CCN(C(=O)c2cc(C(C)c3cnc(Nc4ccccn4)s3)c(C)cc2OC)CC1 (stereo not shown) [Compound 137] | < 10 | < 10 | 100 to 1000 | < 10 | 0.93 |
| C=CC(=O)N1CCN(C(=O)c2cc(Sc3cnc(Nc4ncc(C)cc4C)s3)c(C)cc2C)CC1 [Compound 138] | 10 to 100 | 100 to 1000 | 100 to 1000 | 10 to 100 | 3.29 |
| C=CC(=O)N1CCN(C(=O)c2cc(Sc3cnc(Nc4ncc(C)nc4C)s3)c(C)cc2C)CC1 [Compound 139] | 10 to 100 | 100 to 1000 | 100 to 1000 | 10 to 100 | 4.65 |
| C=CC(=O)N1C[C@H]2CC[C@@H](C1)N2C(=O)c1cc(Sc2cnc(NC(=O)c3ccsc3)s2)c(C)cc1OC [Compound 143, N-(5-((5-((1R,5S)-3-acryloyl-3,8-diazabicyclo[3.2.1]octane-8-carbonyl)-4-methoxy-2-methylphenyl)thio)thiazol-2-yl)thiophene-3-carboxamide] | < 10 | < 10 | 10 to 100 | < 10 | 3.51 |
| C=CC(=O)N1[C@@H]2CC[C@H]1CN(C(=O)c1cc(Sc3cnc(Nc4ccccn4)s3)c(C)cc1OC)C2 [Compound 150, 1-((1R, 5S)-3-(2-methoxy-4-methyl-5-((2-(pyridin-2-ylamino)thiazol-5-yl)thio)benzoyl)-3,8-diazabicyclo[3.2.1]octan-8-yl)prop-2-en-1-one] | < 10 | < 10 | 10 to 100 | < 10 | 1.76 |

More lines, now with the values ahead:

| IC50 (ITK) [nM] | IC50 (BTK) [nM] | IC50 (JAK3) [nM] | IC50 (TXK) [nM] | TXK/ITK (TXK) | Structure (SMILES) |
| --- | --- | --- | --- | --- | --- |
| < 10 | 10 to 100 | 1000 to 10000 | 10 to 100 | 2.66 | C=CC(=O)N1CCN(C(=O)c2cc(C(C)c3cnc(NC(=O)C4CC4)s3)c(C)cc2OC)CC1 (stereo not shown) [Compound 140] |
| < 10 | 10 to 100 | 100 to 1000 | 10 to 100 | 14.70 | C=CC(=O)N1CCN(C(=O)c2cc(Sc3cnc(NC(=O)c4ccsc4)s3)c(C)cc2OC)CC1(C)C [Compound 141, N-(5-((5-(4-acryloyl-3,3-dimethylpiperazine-1-carbonyl)-4-methoxy-2-methylphenyl)thio)thiazol-2-yl)thiophene-3-carboxamide] |
| < 10 | < 10 | < 10 | < 10 | 1.00 | C=CC(=O)N1CCN(C(=O)c2cc(Sc3cnc(NC(=O)c4ccsc4)s3)c(C)cc2OC)C(C)(C)C1 [Compound 142, N-(5-((5-(4-acryloyl-2,2-dimethylpiperazine-1-carbonyl)-4-methoxy-2-methylphenyl)thio)thiazol-2-yl)thiophene-3-carboxamide] |
| < 10 | 10 to 100 | 100 to 1000 | 10 to 100 | 18.84 | C=CC(=O)N1CCN(C(=O)c2cc(Sc3cnc(NC(=O)c4ccsc4)s3)c(C)cc2OC)[C@@H](C)C1 [Compound 144, (S)-N-(5-((5-(4-acryloyl-2-methylpiperazine-1-carbonyl)-4-methoxy-2-methylphenyl)thio)thiazol-2-yl)thiophene-3-carboxamide] |
| < 10 | < 10 | 10 to 100 | < 10 | 3.86 | C=CC(=O)N1CCC2(C1)CN(C(=O)c1cc(Sc3cnc(NC(=O)c4ccsc4)s3)c(C)cc1OC)C2 [Compound 145, N-(5-((5-(6-acryloyl-2,6-diazaspiro[3.4]octane-2-carbonyl)-4-methoxy-2-methylphenyl)thio)thiazol-2-yl)thiophene-3-carboxamide] |
| < 10 | < 10 | < 10 | < 10 | 3.19 | C=CC(=O)N1CC[C@@H](N(C)C(=O)c2cc(Sc3cnc(NC(=O)c4ccsc4)s3)c(C)cc2OC)C1 [Compound 146, (R)-N-(5-((5-((1-acryloylpyrrolidin-3-yl)(methyl)carbamoyl)-4-methoxy-2-methylphenyl)thio)thiazol-2-yl)thiophene-3-carboxamide] |
| < 10 | 10 to 100 | 1000 to 10000 | 100 to 1000 | 29.58 | C=CC(=O)N1CCCN(C(=O)c2cc(Sc3cnc(Nc4ccccn4)s3)c(C)cc2OC)C[C@H]1C(C)C [Compound 147, (R)-l-(2-isopropyl-4-(2-methoxy-4-methyl-5-((2-(pyridin-2-ylamino)thiazol-5-yl)thio)benzoyl)-1,4-diazepan-1-yl)prop-2-en-1-one] |
| < 10 | 100 to 1000 | ≥ 10000 | 100 to 1000 | 82.31 | C=CC(=O)N1CCCN(C(=O)c2cc(Sc3cnc(NC(=O)C4CC4)s3)c(C)cc2OC)C[C@H]1C(C)C [Compound 148, (R)-N-(5-((5-(4-acryloyl-3-isopropyl-1,4-diazepane-1-carbonyl)-4-methoxy-2-methylphenyl)thio)thiazol-2-yl)cyclopropanecarboxamide] |
| < 10 | 10 to 100 | ≥ 10000 | 100 to 1000 | 171.45 | C=CC(=O)N1CCCN(C(=O)c2cc(Sc3cnc(NC(=O)c4ccsc4)s3)c(C)cc2OC)C[C@H]1C(C)C [Compound 149, (R)-N-(5-((5-(4-acryloyl-3-isopropyl-1,4-diazepane-l-carbonyl)-4-methoxy-2-methylphenyl)thio)thiazol-2-yl)thiophene-3-carboxamide] |
| < 10 | 10 to 100 | 10 to 100 | < 10 | 6.43 | C=CC(=O)N1CCN(C(=O)c2cc(Sc3cnc(Nc4ccccn4)s3)c(C)cc2OC)[C@@H](C)C1 [Compound 151, (S)-1-(4-(2-methoxy-4-methyl-5-((2-(pyridin-2-ylamino)thiazol-5-yl)thio)benzoyl)-3-methylpiperazin-1-yl)prop-2-en-1-one] |
| < 10 | 10 to 100 | 100 to 1000 | < 10 | 2.06 | C=CC(=O)N1CCC2(C1)CN(C(=O)c1cc(Sc3cnc(Nc4ccccn4)s3)c(C)cc1OC)C2 [Compound 152, 1-(2-(2-methoxy-4-methyl-5-((2-(pyridin-2-ylamino)thiazol-5-yl)thio)benzoyl)-2,6-diazaspiro[3.4]octan-6-yl)prop-2-en-1-one] |
| < 10 | < 10 | < 10 |  | 0.61 | C=CC(=O)N1CCN(C(=O)c2cc(Sc3cnc(Nc4ccccn4)s3)c(C)cc2OC)C[C@H]1C#N [Compound 153, (S)-1-acryloyl-4-(2-methoxy-4-methyl-5-((2-(pyridin-2-ylamino)thiazol-5-yl)thio)benzoyl)piperazine-2-carbonitrile] |
| < 10 | < 10 | < 10 | < 10 | 1.01 | C=CC(=O)N1CC[C@@H](N(C)C(=O)c2cc(Sc3cnc(Nc4ccccn4)s3)c(C)cc2OC)C1 [Compound 154, (R)-N-(1-acryloylpyrrolidin-3-yl)-2-methoxy-N,4-dimethyl-5-((2-(pyridin-2-ylamino)thiazol-5-yl)thio)benzamide] |
